According to ChEMBL document CHEMBL3596165, “Synthesis, structure elucidation and identification of antiproliferative activities of a novel class of thiophene bioisosteres bearing the privileged 7,8-dihydroimidazo[2,1-c][1,2,4]triazin-4(6H)-one scaffold” (Bioorg Med Chem, 2015):

Experiments:
Type in all cases: functional
Conditions in all cases: read-out: GI
T47D [1] = assay: Antiproliferative activity against human T47D cells at 50 ug/ml after 72 hrs by BrdUrd incorporation assay
HeLa [2] = assay: Antiproliferative activity against human HeLa cells at 50 ug/ml after 48 hrs by BrdUrd incorporation assay
T47D [3] = assay: Antiproliferative activity against human T47D cells at 50 ug/ml after 24 hrs by BrdUrd incorporation assay
HeLa [4] = assay: Antiproliferative activity against human HeLa cells at 50 ug/ml after 24 hrs by BrdUrd incorporation assay
HeLa [5] = assay: Antiproliferative activity against human HeLa cells at 50 ug/ml after 72 hrs by BrdUrd incorporation assay
T47D [6] = assay: Antiproliferative activity against human T47D cells at 50 ug/ml after 48 hrs by BrdUrd incorporation assay

| SMILES | inhibition of growth at 50 µg/mL (T47D [1]) | inhibition of growth at 50 µg/mL (HeLa [2]) | inhibition of growth at 50 µg/mL (T47D [3]) | inhibition of growth at 50 µg/mL (HeLa [4]) | inhibition of growth at 50 µg/mL (HeLa [5]) | inhibition of growth at 50 µg/mL (T47D [6]) |
| --- | --- | --- | --- | --- | --- | --- |
| O=c1c(-c2ccco2)nnc2n1CCN2c1ccccc1 | 95% | 75% | 50% | 50% | 100% | 85% |
| COc1ccccc1N1CCn2c1nnc(-c1ccco1)c2=O | 70% | 35% | 0% | 25% | 80% | 30% |
| Cc1cccc(N2CCn3c2nnc(-c2ccco2)c3=O)c1C | 25% | 75% | 0% | 60% | 90% | 15% |
| Cc1ccccc1N1CCn2c1nnc(-c1ccco1)c2=O | 75% | 25% | 25% | 25% | 50% | 50% |
| O=c1c(-c2ccco2)nnc2n1CCN2c1cccc(Cl)c1 | 80% | 80% | 20% | 80% | 95% | 50% |
| O=c1c(-c2ccco2)nnc2n1CCN2c1ccc(Cl)c(Cl)c1 | 40% | 50% | 10% | 50% | 95% | 20% |
| O=c1c(-c2ccco2)nnc2n1CCN2c1ccc(Cl)cc1 | 15% | 75% | 0% | 50% | 90% | 15% |
| O=c1c(-c2ccco2)nnc2n1CCN2c1ccccc1Cl | 25% | 80% | 5% | 80% | 100% | 15% |
| Cc1ccc(N2CCn3c2nnc(-c2ccco2)c3=O)cc1 | 80% | 50% | 40% | 50% | 80% | 60% |
